Experimental data from US20110002969A1, “COSMETIC OR PHARMACEUTICAL COMPOSITIONS COMPRISING METALLOPROTEINASE INHIBITORS” (LIPOTEC, S.A., priority 2008, published 2011).
Several values for one entry are separate records, joined by “and”; a condition that tells them apart may be missing. Equal entries are not always repeated.

Experiments:
Assay type in all cases: biochemical
type IV collagenase = assay: Collagenase inhibition trial (EnzChek Gelatinase/Collagenase Assay Kit, DQ Gelatin fluorescence); settings: peptides at 2 mg/mL, preincubated 1 hour with 0.1 unit/mL type IV collagenase; DQ Gelatin 25 μg/mL, 2 hours; normalized to medium basal values
Experimental: Peptides were resuspended in water in the presence of 0.5% DMSO. The trial was carried out in black microplates having 96 well and the EnzChek®Gelatinase/Collagenase Assay Kit (Molecular Probes) was used. To that end, peptides were preincubated at 2 mg/mL during 1 hour with 0.1 unit/mL of type IV collagenase at room temperature with moderate agitation, after said time fluorescein conjugated substrate (DQ™ Gelatin) was added to a final concentration of 25 μg/mL and reactions were incubated for 2 hours at room temperature with agitation and protected from light. The substrate, whose flourescence is inhibited, is […] collagenase releasing flourescent fragments, monitored by florescence with a FLUOstar galaxy reader (BMG LabTechnologies), using 485 nm filters for excitation and 520 nm for emission.
Table 2 details those peptides whose collagenase inhibition values are higher than 25%. Inhibition values were normalized with respect to medium inhibition basal values.

Human MMP-9 = Human MMP-9 (Homo sapiens, UniProt P14780); assay: Human MMP inhibition, DQ Gelatin fluorescence; settings: peptides 0.5 mM, activated protease 0.35 μg/mL, 1 hour preincubation; DQ Gelatin 25 μg/mL, 16 hours; normalized to control fluorescence; in % (unit assumed)
Chain of Human MMP-9 (P14780 107-707 limits assumed): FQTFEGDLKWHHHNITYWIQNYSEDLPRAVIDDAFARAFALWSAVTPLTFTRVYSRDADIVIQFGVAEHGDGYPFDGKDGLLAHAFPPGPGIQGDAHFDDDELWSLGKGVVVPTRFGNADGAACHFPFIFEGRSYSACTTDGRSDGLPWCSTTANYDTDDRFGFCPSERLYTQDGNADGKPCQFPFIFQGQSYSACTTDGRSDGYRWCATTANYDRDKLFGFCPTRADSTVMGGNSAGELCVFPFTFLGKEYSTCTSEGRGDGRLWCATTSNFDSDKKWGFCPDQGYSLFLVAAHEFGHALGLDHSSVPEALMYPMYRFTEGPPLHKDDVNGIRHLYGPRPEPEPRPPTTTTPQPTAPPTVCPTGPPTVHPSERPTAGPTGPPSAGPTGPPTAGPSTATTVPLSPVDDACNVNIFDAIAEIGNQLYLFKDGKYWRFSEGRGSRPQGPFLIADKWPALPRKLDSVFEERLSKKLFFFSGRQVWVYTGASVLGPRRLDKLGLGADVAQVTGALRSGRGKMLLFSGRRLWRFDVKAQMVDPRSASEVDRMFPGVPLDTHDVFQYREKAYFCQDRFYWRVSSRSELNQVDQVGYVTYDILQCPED
Experimental: (§1) Human MMPs were reconstructed in 50 mM Tris-HCl, 150 mM NaCl, 5 mM CaCl2, 0.2 mM NaN3 at a 7.6 pH and activated by reaction with 10 mM of 4-aminophenylmercuric acetate (dissolved in 0.01M NaOH) at a 10:1 to 37° C. ratio for 4-6 h. Activated proteases (0.35 μg/mL) were preincubated with peptides to a final 0.5 mM concentration in a 96-well black microplate for 1 hour at room temperature. After preincubation, 25 μg/mL substrate (DQ™ Gelatin) were added to the wells and samples were incubated for 16 hours at room temperature and protected against the light. Released flourescence by marked gelatin digestion was measured with an automated multiplate fluorescence reader, exciting at 485 nm and reading at 520 nm.
(§2) The results were corrected from basal flourescent value in MMP and product absence and normalized with respect to control fluorescence. Table 3 details the best inhibition values for peptides.

Human MMP-2 = molecular target: T1, Human MMP-2 (Homo sapiens, UniProt P08253); assay: Human MMP inhibition, DQ Gelatin fluorescence; settings: peptides 0.5 mM, activated protease 0.35 μg/mL, 1 hour preincubation; DQ Gelatin 25 μg/mL, 16 hours; normalized to control fluorescence; in % (unit assumed)
T1 sequence (P08253 110-660): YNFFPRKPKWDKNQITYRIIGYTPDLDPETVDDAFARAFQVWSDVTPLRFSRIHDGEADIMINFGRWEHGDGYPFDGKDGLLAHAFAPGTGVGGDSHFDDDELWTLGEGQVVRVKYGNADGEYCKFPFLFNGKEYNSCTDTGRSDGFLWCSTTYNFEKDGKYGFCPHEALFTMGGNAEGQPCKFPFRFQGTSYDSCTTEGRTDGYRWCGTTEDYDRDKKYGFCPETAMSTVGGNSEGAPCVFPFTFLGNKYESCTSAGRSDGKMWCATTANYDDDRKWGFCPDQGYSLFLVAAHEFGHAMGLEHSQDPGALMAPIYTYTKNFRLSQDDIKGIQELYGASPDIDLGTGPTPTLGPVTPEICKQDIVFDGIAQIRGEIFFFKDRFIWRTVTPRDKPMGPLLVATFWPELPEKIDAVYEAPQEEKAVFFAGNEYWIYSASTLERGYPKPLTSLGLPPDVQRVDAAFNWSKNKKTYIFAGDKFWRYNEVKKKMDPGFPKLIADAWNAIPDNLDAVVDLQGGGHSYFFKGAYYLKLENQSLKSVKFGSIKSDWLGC
Experimental: as §1, §2

Human MMP-1 = molecular target: T2, Human MMP-1 (Homo sapiens, UniProt P03956); assay: Human MMP inhibition, DQ Gelatin fluorescence; settings: peptides 0.5 mM, activated protease 0.35 μg/mL, 1 hour preincubation; DQ Gelatin 25 μg/mL, 16 hours; normalized to control fluorescence
T2 sequence (P03956 100-469): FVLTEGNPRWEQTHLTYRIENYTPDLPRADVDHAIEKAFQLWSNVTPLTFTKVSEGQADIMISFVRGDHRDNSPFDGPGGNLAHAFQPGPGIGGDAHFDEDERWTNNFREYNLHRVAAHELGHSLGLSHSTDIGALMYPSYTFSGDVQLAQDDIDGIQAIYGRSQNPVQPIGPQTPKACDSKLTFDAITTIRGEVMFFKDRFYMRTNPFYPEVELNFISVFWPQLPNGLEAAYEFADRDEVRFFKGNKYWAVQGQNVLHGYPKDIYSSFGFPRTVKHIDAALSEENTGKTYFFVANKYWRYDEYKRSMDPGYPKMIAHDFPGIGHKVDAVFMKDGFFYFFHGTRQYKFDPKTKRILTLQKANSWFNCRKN
Experimental: as §1, §2

Human MMP-3 = Human MMP-3 (Homo sapiens, UniProt P08254); assay: Human MMP inhibition, DQ Gelatin fluorescence; settings: peptides 0.5 mM, activated protease 0.35 μg/mL, 1 hour preincubation; DQ Gelatin 25 μg/mL, 16 hours; normalized to control fluorescence
Chain of Human MMP-3 (P08254 100-477): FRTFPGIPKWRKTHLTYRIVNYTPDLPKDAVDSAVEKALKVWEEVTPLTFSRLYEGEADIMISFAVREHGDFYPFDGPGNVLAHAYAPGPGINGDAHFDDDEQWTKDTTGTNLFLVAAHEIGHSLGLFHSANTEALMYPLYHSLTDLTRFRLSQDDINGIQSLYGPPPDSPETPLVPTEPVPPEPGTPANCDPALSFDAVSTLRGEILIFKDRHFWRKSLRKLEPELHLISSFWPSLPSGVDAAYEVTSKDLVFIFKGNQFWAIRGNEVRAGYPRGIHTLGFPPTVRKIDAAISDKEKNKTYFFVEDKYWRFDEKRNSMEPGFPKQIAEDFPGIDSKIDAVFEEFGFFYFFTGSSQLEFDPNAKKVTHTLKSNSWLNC
Experimental: as §1, §2

Substance | Collagenase activity inhibition percentage (type IV collagenase) | MMP-9 inhibition value (Human MMP-9) | MMP-2 inhibition value (Human MMP-2) | MMP-1 inhibition value (Human MMP-1) | MMP-3 inhibition value (Human MMP-3)
H-L-Arg-L-Asn-L-His-L-Cit-OH | 26.8% | – | – | – | –
Ac-L-Arg-L-Asn-L-Arg-L-Cit-OH | 58.9% | 69.5 and 89.6 | 78.7 and 95.3 | – | –
Palm-L-Arg-L-Asn-L-Arg-L-Cit-NH2 | 31.3% | – | – | – | –
Ac-L-Arg-L-His-L-His-L-Cit-OH | 60.6% | 63.1 | 101.4 | 34.7% | 39.1%
Ac-L-Ara-L-His-L-His-L-Cit-CONH-(CH2)15-CH3 | 55.4% | – | – | – | –
Ac-L-Arg-L-His-L-Arg-L-Cit-OH | 60.5% | – | – | – | –
Ac-L-Arg-L-Asn-L-His-L-Cit-CONH-(CH2)15-CH3 | 26.8% | – | – | – | –
Palm-L-Arg-L-His-L-His-L-Cit-NH2 | 36.7% | – | – | – | –
